From US20150352108A1, “AMINO-PYRIMIDINE COMPOUNDS AS INHIBITORS OF TBK1 AND/OR IKK EPSILON” (Alzheimer's Institute of America, priority 2009, published 2015) come the findings set out here.

The target of one test is T1, IKKε (Homo sapiens, UniProt Q14164).
T1 construct: His-tag; made in house; host or cells: Sf9 insect cells
T1 sequence (Q14164 1-716): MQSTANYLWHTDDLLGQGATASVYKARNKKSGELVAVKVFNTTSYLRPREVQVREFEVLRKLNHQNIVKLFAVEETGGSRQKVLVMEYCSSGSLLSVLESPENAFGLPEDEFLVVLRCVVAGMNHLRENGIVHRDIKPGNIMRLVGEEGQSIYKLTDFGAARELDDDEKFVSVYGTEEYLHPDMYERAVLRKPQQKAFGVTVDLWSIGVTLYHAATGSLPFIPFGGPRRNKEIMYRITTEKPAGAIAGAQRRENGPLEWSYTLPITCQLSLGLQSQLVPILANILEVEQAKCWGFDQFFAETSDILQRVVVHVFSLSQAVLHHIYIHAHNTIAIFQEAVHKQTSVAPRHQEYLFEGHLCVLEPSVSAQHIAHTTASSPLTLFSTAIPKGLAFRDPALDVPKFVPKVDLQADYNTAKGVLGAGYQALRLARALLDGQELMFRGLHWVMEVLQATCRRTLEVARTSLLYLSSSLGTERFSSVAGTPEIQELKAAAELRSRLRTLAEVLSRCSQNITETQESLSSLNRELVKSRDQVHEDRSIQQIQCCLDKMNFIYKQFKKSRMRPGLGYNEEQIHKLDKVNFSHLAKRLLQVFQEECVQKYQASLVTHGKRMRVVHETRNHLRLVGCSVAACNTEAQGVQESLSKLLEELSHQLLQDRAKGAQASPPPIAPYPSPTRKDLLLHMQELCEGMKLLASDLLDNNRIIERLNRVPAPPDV
Kind of test: In-vitro IKKε kinase assay ([γ33]ATP filter-plate). It counts as biochemical. The method, boiled down: (§1)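 Phosphorylation of casein or myelin basic protein was counted by P-81 filter capture after 30-45 min reactions stopped with phosphoric acid, with counts normalized to DMSO after background subtraction. ATP was twice Km: 60 μM for TBK1 and 32 μM for IKKε, plus [γ33]ATP. Sf9-expressed His-tag enzymes were used at normal/sensitized levels of 0.1/0.02 μg/ml (TBK1) and 0.1/0.015 μg/ml (IKKε).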

The next test concerns the target T2, TBK1 (Homo sapiens, UniProt Q9UHD2).
T2 construct: His-tag; made in house; host or cells: Sf9 insect cells
T2 sequence (Q9UHD2 1-729): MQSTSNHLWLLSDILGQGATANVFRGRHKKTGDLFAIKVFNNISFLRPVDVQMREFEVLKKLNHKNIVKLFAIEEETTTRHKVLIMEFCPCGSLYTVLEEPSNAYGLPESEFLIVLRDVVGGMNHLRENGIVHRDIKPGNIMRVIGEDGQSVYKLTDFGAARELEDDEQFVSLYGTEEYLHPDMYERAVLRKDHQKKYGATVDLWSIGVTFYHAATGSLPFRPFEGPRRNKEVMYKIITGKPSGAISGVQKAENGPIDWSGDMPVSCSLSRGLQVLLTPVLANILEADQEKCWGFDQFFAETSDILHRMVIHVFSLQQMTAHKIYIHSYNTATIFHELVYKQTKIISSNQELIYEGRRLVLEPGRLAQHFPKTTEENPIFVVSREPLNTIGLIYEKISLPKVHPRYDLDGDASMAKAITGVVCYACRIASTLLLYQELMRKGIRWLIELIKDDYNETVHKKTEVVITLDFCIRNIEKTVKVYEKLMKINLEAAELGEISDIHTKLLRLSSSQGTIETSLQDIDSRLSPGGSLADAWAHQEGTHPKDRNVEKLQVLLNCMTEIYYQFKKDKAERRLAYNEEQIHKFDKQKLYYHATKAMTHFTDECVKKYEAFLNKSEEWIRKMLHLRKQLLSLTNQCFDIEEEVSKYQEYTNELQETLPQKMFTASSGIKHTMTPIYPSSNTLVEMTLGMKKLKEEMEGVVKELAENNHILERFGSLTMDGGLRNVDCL
As to the kind of experiment: In-vitro TBK1 kinase assay ([γ33]ATP filter-plate). It counts as biochemical. The method, boiled down:
as §1

Test [1] deals with IKKε-mediated phosphorylation of IRF3. As to the kind of experiment: In-situ phosphorylation of IRF3 (pIRF3 Ser396 ELISA) in HEK293T cells cotransfected with IRF3 and IKKε. It counts as cell-based. As to conditions: Homo sapiens, HEK-293T. Put shortly:
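For the IRF3 ELISA, HEK293T cells cotransfected with IRF3 and IKKε were replated at 20,000/well and treated 20 h. Phospho-Ser396 IRF3 was measured by ELISA and normalised to DMSO, with viability checked by CellTiter-Glo. For IRF7, cells transfected with IRF7 and TBK1 were treated overnight, and pSer477/Ser479 IRF7 was detected by Western blot.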
Background: An ELISA detects its analyte on a solid surface through an enzyme-linked reagent.

The mark [2] stands for this setting: text bins, read-out: IC50 for inhibition of the kinase activity of IKKε.
Setting [3] is: text bins, read-out: IC50 for inhibition of the kinase activity of TBK1.
The mark [4] stands for this setting: HEK293T cells in culture, Table 3, read-out: pIRF3 ELISA IC50.
The mark [5] stands for this setting: HEK293T cells, 20 hours, text bins, read-out: IC50 for inhibition of the in-situ IKKε-mediated phosphorylation of IRF3.

The structures appear in SMILES notation. Like-named read-outs stand apart in the source and are kept apart here. A value given as a limit tells only on which side of the number the result lay.

For orientation: IC50 means the concentration that gives 50% inhibition. For the compound `N#Cc1cc(-c2ccnc(Nc3cccc(NCCN4CCOCC4)c3)n2)ccc1OC1CCOCC1` [compound 657], the IC50 at IKKε (Table 3, read-out: IKKε IC50) is 1.3 nM; at IKKε (setting [2]), less than 5 nM; at TBK1 (Table 3, read-out: TBK1 IC50), 1.3 nM; on TBK1 (setting [3]) it was less than 10 nM; in test [1] (setting [4]), 97.6 nM; in test [1] (setting [5]), less than 100 nM.
Take `N#Cc1cc(-c2ccnc(Nc3ccc(N4CCOCC4)cc3)n2)ccc1NC(=O)CC(F)(F)F` [Example 93, N-[2-cyano-4-(2-{[4-(morpholin-4-yl)phenyl]amino}pyrimidin-4-yl)phenyl]-3,3,3-trifluoropropanamide]: the IC50 was 0.7 nM on IKKε (Table 3, read-out: IKKε IC50); less than 5 nM on IKKε (setting [2]); 0.3 nM at TBK1 (Table 3, read-out: TBK1 IC50); less than 10 nM on TBK1 (setting [3]); 139 nM in test [1] (setting [4]); 100 to 250 nM in test [1] (setting [5]).
Take `N#Cc1cc(-c2ccnc(Nc3ccc(CN4CCN(CCO)CC4)cc3)n2)ccc1OC1CCOCC1` [compound 511, 5-{2-[(4-{[4-(2-hydroxyethyl)piperazin-1-yl]methyl}phenyl)amino]pyrimidin-4-yl}-2-(tetrahydro-2H-pyran-4-yloxy)benzonitrile]: the IC50 at IKKε (setting [2]) is less than 5 nM; on TBK1 (setting [3]) it was less than 10 nM; in test [1] (setting [5]) it was 100 to 250 nM.
In the same order, the values of `COc1cc(Nc2nccc(-c3ccc(OC4CCOCC4)c(C#N)c3)n2)ccc1S(=O)(=O)NC1CCN(C)CC1` [Example 253, 4-({4-[3-cyano-4-(tetrahydro-2H-pyran-4-yloxy)phenyl]pyrimidin-2-yl}amino)-2-methoxy-N-(1-methylpiperidin-4-yl)benzenesulfonamide] are less than 5 nM, less than 10 nM and 250 to 500 nM.
With `CN1CCN(CCNc2cccc(Nc3nccc(-c4ccc(OC5CCOCC5)c(C#N)c4)n3)c2)CC1` [compound 616, 5-{2-[(3-{[2-(4-Methylpiperazin-1-yl)ethyl]amino}phenyl)amino]pyrimidin-4-yl}-2-(tetrahydro-2H-pyran-4-yloxy)benzonitrile], the IC50 is 1.1 nM on IKKε (Table 3, read-out: IKKε IC50); less than 5 nM at IKKε (setting [2]); 1.6 nM at TBK1 (Table 3, read-out: TBK1 IC50); less than 10 nM on TBK1 (setting [3]); 98.5 nM in test [1] (setting [4]); less than 100 nM in test [1] (setting [5]).
With `N#Cc1cc(-c2ccnc(Nc3ccc(N4CCOCC4)cc3)n2)ccc1OC1CCN(C=O)CC1` [Example 242, 2-[(1-formylpiperidin-4-yl)oxy]-5-(2-{[4-(morpholin-4-yl)phenyl]amino}pyrimidin-4-yl)benzonitrile], the values for the IC50 (on IKKε (setting [2]); on TBK1 (setting [3]); in test [1] (setting [5])) were less than 5 nM, less than 10 nM and 250 to 500 nM, respectively.
In the same order, the values of `COc1cc(Nc2nccc(-c3ccc(OC4CCOCC4)c(C#N)c3)n2)ccc1OCCOCCN` [Example 21, 5-[2-({4-[2-(2-aminoethoxy)ethoxy]-3-methoxyphenyl}amino)pyrimidin-4-yl]-2-(tetrahydro-2H-pyran-4-yloxy)benzonitrile] are less than 5 nM, less than 10 nM and less than 100 nM.
Taken in the same sequence, the figures for `CC(C)N1CCN(C(=O)Cc2cccc(Nc3nccc(-c4ccc(OC5CCOCC5)c(C#N)c4)n3)c2)CC1` [compound 408, 5-{2-[(3-{2-Oxo-2-[4-(propan-2-yl)piperazin-1-yl]ethyl}phenyl)amino]pyrimidin-4-yl}-2-(tetrahydro-2H-pyran-4-yloxy)benzonitrile] were 5 to 50 nM, less than 10 nM and less than 100 nM.
With `COc1cc(Nc2nccc(-c3ccc(O[C@@H]4CCN(C(=O)CO)C4)c(C#N)c3)n2)ccc1N1CCOCC1` [compound 588, 2-{[(3R)-1-(hydroxyacetyl)pyrrolidin-3-yl]oxy}-5-(2-{[3-methoxy-4-(morpholin-4-yl)phenyl]amino}pyrimidin-4-yl)benzonitrile], the IC50 is 0.3 nM at IKKε (Table 3, read-out: IKKε IC50); less than 5 nM on IKKε (setting [2]); 0.3 nM at TBK1 (Table 3, read-out: TBK1 IC50); less than 10 nM at TBK1 (setting [3]); 31 nM in test [1] (setting [4]); less than 100 nM in test [1] (setting [5]).
As to `CN(C)C(=O)Nc1cccc(Nc2nccc(-c3ccc(OC4CCOCC4)c(C#N)c3)n2)c1` [compound 631, 3-[3-({4-[3-Cyano-4-(tetrahydro-2H-pyran-4-yloxy)phenyl]pyrimidin-2-yl}amino)phenyl]-1,1-dimethylurea], the IC50 at IKKε (Table 3, read-out: IKKε IC50) was 0.8 nM; on IKKε (setting [2]) it was less than 5 nM; on TBK1 (Table 3, read-out: TBK1 IC50) it was 1.3 nM; on TBK1 (setting [3]) it was less than 10 nM; in test [1] (setting [4]), 31.9 nM; in test [1] (setting [5]), less than 100 nM.
Turning to `CS(=O)(=O)NCc1ccc(Nc2nccc(-c3ccc(OC4CCOCC4)c(C#N)c3)n2)cc1` [compound 493, N-[4-({4-[3-cyano-4-(tetrahydro-2H-pyran-4-yloxy)phenyl]pyrimidin-2-yl}amino)benzyl] methanesulfonamide], the IC50 on IKKε (setting [2]) was less than 5 nM; on TBK1 (setting [3]) it was less than 10 nM; in test [1] (setting [5]) it was less than 100 nM.
In the case of `N#Cc1cc(-c2ccnc(Nc3ccc(CN4CCOCC4)cc3)n2)ccc1OC1CCOCC1` [compound 510, 5-(2-{[4-(morpholin-4-ylmethyl)phenyl]amino}pyrimidin-4-yl)-2-(tetrahydro-2H-pyran-4-yloxy)benzonitrile], the IC50 is less than 5 nM on IKKε (setting [2]), less than 10 nM on TBK1 (setting [3]) and less than 100 nM in test [1] (setting [5]).
As for `N#Cc1cc(-c2ccnc(Nc3ccc(CS(=O)(=O)NCCCN4CCOCC4)cc3)n2)ccc1OC1CCOCC1` [compound 405, 1-[4-({4-[3-Cyano-4-(tetrahydro-2H-pyran-4-yloxy)phenyl]pyrimidin-2-yl}amino)phenyl]-N-[3-(morpholin-4-yl)propyl] methanesulfonamide], the IC50 was less than 5 nM at IKKε (setting [2]), less than 10 nM on TBK1 (setting [3]) and less than 100 nM in test [1] (setting [5]).
As to `CN1CCC(NCc2cccc(Nc3nccc(-c4ccc(OC5CCOCC5)c(C#N)c4)n3)c2)CC1` [Example 271, 5-{2-[(3-{[(1-Methylpiperidin-4-yl)amino]methyl}phenyl)amino]pyrimidin-4-yl}-2-(tetrahydro-2H-pyran-4-yloxy)benzonitrile], the 50% inhibitory concentration (IC50) at IKKε (setting [2]) is less than 5 nM; at TBK1 (setting [3]), less than 10 nM; in test [1] (setting [5]), less than 100 nM.
On to `COC1CN(Cc2ccc(Nc3nccc(-c4ccc(OC5CCOCC5)c(C#N)c4)n3)cc2)C1` [compound 487], for which the IC50 on IKKε (setting [2]) was less than 5 nM; at TBK1 (setting [3]), less than 10 nM; in test [1] (setting [5]), less than 100 nM.
Taken in the same sequence, the figures for `COc1cc(Nc2nccc(-c3ccc(OC4CCN(C(=O)CO)C4)c(C#N)c3)n2)ccc1N1CCOCC1` (stereo not drawn) [Example 223, 2-{[1-(hydroxyacetyl)pyrrolidin-3-yl]oxy}-5-(2-{[3-methoxy-4-(morpholin-4-yl)phenyl]amino}pyrimidin-4-yl)benzonitrile] were less than 5 nM, less than 10 nM and less than 100 nM.
